Ki data for 51 molecules are collected here from US20050209278A1, “Piperidinyl- and piperazinyl-sulfonylmethyl hydroxamic acids and their use as protease inhibitors” (priority 2002, published 2005).

SMILES strings stand for the structures.

T1 sequence (P14780 107-707 limits assumed): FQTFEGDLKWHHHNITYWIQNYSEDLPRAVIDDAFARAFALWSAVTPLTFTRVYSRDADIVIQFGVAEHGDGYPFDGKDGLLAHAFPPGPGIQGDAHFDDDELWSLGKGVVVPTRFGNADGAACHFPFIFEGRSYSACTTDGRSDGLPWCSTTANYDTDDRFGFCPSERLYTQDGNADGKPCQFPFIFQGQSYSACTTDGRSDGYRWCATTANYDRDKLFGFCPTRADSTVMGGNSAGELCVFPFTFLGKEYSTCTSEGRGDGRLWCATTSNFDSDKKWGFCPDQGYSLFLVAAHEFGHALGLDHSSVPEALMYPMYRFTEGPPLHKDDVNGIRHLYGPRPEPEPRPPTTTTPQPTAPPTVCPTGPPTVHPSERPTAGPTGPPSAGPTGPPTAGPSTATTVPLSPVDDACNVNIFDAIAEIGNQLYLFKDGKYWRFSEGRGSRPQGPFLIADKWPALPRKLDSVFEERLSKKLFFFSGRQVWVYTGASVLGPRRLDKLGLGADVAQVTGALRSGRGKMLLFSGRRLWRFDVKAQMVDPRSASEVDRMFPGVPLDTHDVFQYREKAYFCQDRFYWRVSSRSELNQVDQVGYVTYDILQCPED

This experiment concerns the target T1, MMP-9 (Homo sapiens, UniProt P14780).
T1 construct: made in house; host or cells: MMP-9-transfected HT1080 cells (spent media)
Nature of the experiment: In vitro MMP inhibition, Ki determination (fluorogenic substrate II). Conditions: value outside parentheses. Type of experiment: biochemical. The method, boiled down:
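HT1080-derived MMP-9, activated with APMA, trypsin or MMP-3, incubated 1 hr at room temperature with inhibitor and 4 μM fluorogenic substrate II (at or below Km) in pH 7.5 Tris/NaCl/CaCl2 buffer; ex 330/em 420 nm. Ki from Morrison-equation regression, without substrate correction.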
A word on the Ki: it is a dissociation constant, usually derived from enzyme kinetics or from competition with a known ligand. In the case of `CCCCOc1ccc(N2CCN(S(=O)(=O)C3(C(=O)NO)CCN(Cc4ccco4)CC3)CC2)cc1` [Example 252], the inhibition constant Ki is 1.43 nM. In the case of `CCCCOc1ccc(N2CCN(S(=O)(=O)C3(C(=O)NO)CCN(C(N)=O)CC3)CC2)cc1` [Example 253] it was 1.57 nM; in that of `CCCCOc1ccc(N2CCN(S(=O)(=O)C3(C(=O)NO)CCN(C(=O)N(C)C)CC3)CC2)cc1` [Example 254], 0.63 nM.

Take `CCCCOc1ccc(N2CCN(S(=O)(=O)C3(C(=O)NO)CCN(C(=O)c4ccccc4)CC3)CC2)cc1` [Example 255]: the inhibitory constant (Ki) was 2.54 nM. As to `CCCCOc1ccc(N2CCN(S(=O)(=O)C3(C(=O)NO)CCN(c4ccc(C(F)(F)F)cn4)CC3)CC2)cc1` [Example 257], the inhibition constant Ki was 37 nM.

For `O=C(NO)C1(S(=O)(=O)N2CCN(c3ccc(SC(F)(F)F)cc3)CC2)CCS(=O)(=O)CC1` [Example 258], the inhibition constant (Ki) came to 457 nM.

In the case of `CCCCOc1ccc(N2CCN(S(=O)(=O)C3(C(=O)NO)CCN(C(=O)c4ccncc4)CC3)CC2)cc1` [Example 259], the inhibition constant Ki was found to be 1.35 nM. The same measure for `CCCCOc1ccc(N2CCN(S(=O)(=O)C3(C(=O)NO)CCN(C(=O)C4CC4)CC3)CC2)cc1` [Example 260]: 0.946 nM; for `CCc1ccc(N2CCN(S(=O)(=O)C3(C(=O)NO)CCCC3)CC2)nc1` [Example 261]: 1.53 nM. In the case of `CCc1ccc(N2CCN(S(=O)(=O)C3(C(=O)NO)CCCCC3)CC2)nc1` [Example 263] it was 0.634 nM; in that of `CCCCOc1ccc(N2CCN(S(=O)(=O)C3(C(=O)NO)CCN(c4ccccc4)CC3)CC2)cc1` [Example 264], 20.4 nM. For the molecule `CCCCOc1ccc(N2CCN(S(=O)(=O)C3(C(=O)NO)CCN(C(=O)CC(F)(F)F)CC3)CC2)cc1` [Example 265], the inhibition constant Ki is 2.14 nM. In the case of `CCCCOc1ccc(N2CCN(S(=O)(=O)C3(C(=O)NO)CCN(C(=O)c4cccnc4)CC3)CC2)cc1` [Example 266] it was 0.957 nM. The same measure for `CCCCOc1ccc(N2CCN(S(=O)(=O)C3(C(=O)NO)CCN(C(=O)C(C)(C)C)CC3)CC2)cc1` [Example 267]: 2.54 nM; for `CCCCOc1ccc(N2CCN(S(=O)(=O)C3(C(=O)NO)CCN(C(=O)COC)CC3)CC2)cc1` [Example 268]: 1.08 nM. In the case of `CCCCOc1ccc(N2CCN(S(=O)(=O)C3(C(=O)NO)CCN(C=O)CC3)CC2)cc1` [Example 269] it was 0.953 nM. Regarding `CCCCc1ccc(N2CCN(S(=O)(=O)C3(C(=O)NO)CCN(CCOC)CC3)CC2)nc1` [Example 270], the Ki stood at 0.205 nM. The same measure for `CCCCOc1ccc(N2CCN(S(=O)(=O)C3(C(=O)NO)CCN(C(=O)CO)CC3)CC2)cc1` [Example 271]: 1.49 nM; for `CCCCCc1ccc(N2CCN(S(=O)(=O)C3(C(=O)NO)CCN(C4CC4)CC3)CC2)cc1` [Example 272]: 0.542 nM; for `CCCCOc1ccc(N2CCN(S(=O)(=O)C3(C(=O)NO)CCN(C(=O)C(C)C)CC3)CC2)cc1` [Example 273]: 1.21 nM. In the case of `CCCCOc1ccc(N2CCN(S(=O)(=O)C3(C(=O)NO)CCN(C(=O)CC)CC3)CC2)cc1` [Example 274] it was 1.66 nM; in that of `CCCCOc1ccc(N2CCN(S(=O)(=O)C3(C(=O)NO)CCN(c4ccc(C)nn4)CC3)CC2)cc1` [Example 275], 0.807 nM. In the case of `CCCCOc1ccc(N2CCN(S(=O)(=O)C3(C(=O)NO)CCNCC3)CC2)cc1` [Example 276] it was 9.39 nM. For `CCCCOc1ccc(N2CCN(S(=O)(=O)C3(C(=O)NO)CCN(C(=O)c4ccccn4)CC3)CC2)cc1` [Example 277], the Ki came out at 0.95 nM. Regarding `CCCCOc1ccc(N2CCN(S(=O)(=O)C3(C(=O)NO)CCN(C(=O)CCCC)CC3)CC2)cc1` [Example 278], the Ki turned out to be 2 nM. The same measure for `CC(C)CCOc1ccc(N2CCN(S(=O)(=O)C3(C(=O)NO)CCOCC3)CC2)cc1` [Example 279]: 3.07 nM; for `CCCCOc1ccc(N2CCN(S(=O)(=O)C3(C(=O)NO)CCN(C)CC3)CC2)cc1` [Example 280]: 3.61 nM. In the case of `CCCCOc1ccc(N2CCN(S(=O)(=O)C3(C(=O)NO)CCN(c4ccc(Cl)nn4)CC3)CC2)cc1` [Example 281] it was 2.16 nM; in that of `CCCCOc1ccc(N2CCN(S(=O)(=O)C3(C(=O)NO)CCN(C(C)=O)CC3)CC2)cc1` [Example 282], 0.098 nM. Consider `CCCCOc1ccc(N2CCN(S(=O)(=O)C3(C(=O)NO)CCN(c4ccc(O)nn4)CC3)CC2)cc1` [Example 283], for which the inhibitory constant (Ki) came out at 0.69 nM. In the case of `CCCCOc1ccc(N2CCN(S(=O)(=O)C3(C(=O)NO)CCN(CCOC)CC3)CC2)c(F)c1` [Example 284] it was 0.99 nM. The same measure for `CCCCOc1ccc(N2CCN(S(=O)(=O)C3(C(=O)NO)CCN(Cc4ccccc4)CC3)CC2)cc1F` [Example 285]: 9.83 nM; for `CCCCOc1ccc(N2CCN(S(=O)(=O)C3(C(=O)NO)CCNCC3)CC2)cc1F` [Example 286]: 22.3 nM.

Regarding `COCCN1CCC(C(=O)NO)(S(=O)(=O)N2CCN(c3ccc(Oc4ccccc4)cc3)CC2)CC1` [Example 287], the Ki stood at 13.9 nM. In the case of `CCCCOc1ccc(N2CCN(S(=O)(=O)C3(C(=O)NO)CCN(C(=O)CN)CC3)CC2)cc1` [Example 292] it was 3.51 nM; in that of `CCCCOc1ccc(N2CCN(S(=O)(=O)C3(C(=O)NO)CCN(Cc4cccnc4)CC3)CC2)cc1F` [Example 293], 2.21 nM. Take `CCCCOc1ccc(N2CCN(S(=O)(=O)C3(C(=O)NO)CCN(c4ccc(C)cc4)CC3)CC2)cc1` [Example 295]: the Ki came to 17.1 nM.

In the case of `CCCCOc1ccc(N2CCN(S(=O)(=O)C3(C(=O)NO)CCN(c4ccc(C)cc4)CC3)CC2)cc1F` [Example 296], the Ki is 47.6 nM. In the case of `COCCOc1ccc(N2CCN(S(=O)(=O)C3(C(=O)NO)CCN(C4CC4)CC3)CC2)cc1F` [Example 297] it was 19.5 nM. In the case of `CCCCOc1ccc(N2CCN(S(=O)(=O)C3(C(=O)NO)CCN(CC4CC4)CC3)CC2)cc1` [Example 298] it was 2.99 nM.

`Cc1cc(N2CCN(S(=O)(=O)C3(C(=O)NO)CCOCC3)CC2)ccc1OC(C)C` [Example 299]: the Ki came out at 43.6 nM. The same measure for `CS(=O)(=O)c1ccc(N2CCN(S(=O)(=O)C3(C(=O)NO)CCOCC3)CC2)cc1` [Example 300]: 142 nM; for `CCCCOc1ccc(N2CCN(S(=O)(=O)C3(C(=O)NO)CCN(C4CC4)CC3)CC2)cc1` [Example 301]: 9.11 nM. In the case of `C#CCN1CCC(C(=O)NO)(S(=O)(=O)N2CCN(c3ccc(OCCCC)cc3)CC2)CC1` [Example 303] it was 1.48 nM; in that of `CCCCCc1ccc(C2CCN(S(=O)(=O)C3(C(=O)NO)CCOCC3)CC2)nc1` [Example 305], 0.133 nM. In the case of `O=C(NO)C1(S(=O)(=O)N2CCC(c3ccc(Br)cn3)CC2)CCOCC1` [Example 306] it was 1.03 nM; in that of `O=C(NO)C1(S(=O)(=O)N2CCC(c3ccc(-c4ccc(F)cc4F)cn3)CC2)CCOCC1` [Example 308], 11.3 nM; in that of `COCCN1CCC(C(=O)NO)(S(=O)(=O)N2CCC(c3ccc(CCC(F)(F)F)cc3)CC2)CC1` [Example 309], 0.102 nM.

`COCCN1CCC(C(=O)NO)(S(=O)(=O)N2CCC(c3ccc(CCCC(F)(F)F)cc3)CC2)CC1` [Example 310]: the inhibition constant (Ki) is 0.346 nM. In the case of `COCCN1CCC(C(=O)NO)(S(=O)(=O)N2CCC(c3ncc(CC(C)C)s3)CC2)CC1` [Example 311] it was 35.7 nM; in that of `COCCN1CCC(C(=O)NO)(S(=O)(=O)N2CCC(c3ccc(CCC(F)(F)C(F)(F)F)cc3)CC2)CC1` [Example 312], 0.24 nM.
